Source: patent US6706740B2, “Fungicidal heterocyclic aromatic amides and their compositions, methods of use and preparation” (Dow AgroSciences LLC, priority 1999, dated 2004)
Where two headings read alike, the source gives them in different places.

Experiments:
[1] = test system: Leptosphaeria nodorum—LEPTNO; experiment: Glume Blotch of Wheat, in vivo whole plant, 24 Hour Protectant; settings: for pest or weed control at 100 ppm: Leptosphaeria, read-out: LEPTNO in vivo 1 Day Protectant
[2] = test system: Puccinia recondita—PUCCRT; experiment: Brown Rust of Wheat, in vivo whole plant, 24 Hour Protectant; settings: for pest or weed control at 100 ppm: Puccinia, control of fungal infection vs untreated plants, read-out: PUCCRT in vivo 1 Day Protectant; for PUCCRT in vivo 1 Day Protectant: % control of fungal infection vs untreated plants
[3] = test system: Septoria tritici—SEPTTR; experiment: Leaf Blotch of Wheat, in vivo whole plant, 24 Hour Protectant; settings: for pest or weed control at 100 ppm: Zymoseptoria tritici, 24 h, control of fungal infection vs untreated plants, read-out: SEPTTR in vivo 1 Day Protectant; for SEPTTR in vivo 1 Day Protectant: % control of fungal infection vs untreated plants
[4] = test system: Rhizoctonia solani (RHIZSO); experiment: microbe, parasite or virus in culture; format: cell-based; settings: Rhizoctonia solani, read-out: RHIZSO in vitro Growth Inhibition
[5] = test system: Phytophthora infestans—PHYTIN; experiment: whole plant or invertebrate; format: in vivo; settings: Phytophthora, in Solanum lycopersicum, 24 h, read-out: PHYTIN in vivo 1 Day Protectant
[6] = test system: Mycosphaerella graminicola (Septoria tritici—SEPTTR); experiment: In vitro fungal growth inhibition, Mycosphaerella graminicola (SEPTTR); format: cell-based; settings: Zymoseptoria tritici, read-out: SEPTTR in vitro Growth Inhibition
[7] = test system: Stagonospora nodorum (Leptosphaeria nodorum—LEPTNO); experiment: In vitro fungal growth inhibition, Stagonospora nodorum (LEPTNO); format: cell-based; settings: Leptosphaeria, read-out: LEPTNO in vitro Growth Inhibition
[8] = test system: Erysiphe graminis—ERYSGT; experiment: Powdery Mildew of Wheat, in vivo whole plant, 24 Hour Protectant; settings: for pest or weed control at 100 ppm: Erysiphe, read-out: ERYSGT in vivo 1 Day Protectant
[9] = test system: Ustilago maydis (USTIMA); experiment: microbe, parasite or virus in culture; format: cell-based; settings: Mycosarcoma maydis, read-out: USTIMA in vitro Growth Inhibition
[10] = test system: Magnaporthe grisea (Pyricularia oryzae—PYRIOR); experiment: microbe, parasite or virus in culture; format: cell-based; settings: Pyricularia oryzae, read-out: PYRIOR in vitro Growth Inhibition
[11] = test system: Phytophthora infestans (PHYTIN); experiment: microbe, parasite or virus in culture; format: cell-based; settings: Phytophthora infestans, read-out: PHYTIN in vitro Growth Inhibition
[12] = 100 ppm spray, wheat, 24 hour protectant, control of fungal infection vs untreated plants
[13] = 100 ppm spray, wheat, 24 hour protectant
[14] = 100 ppm spray, wheat, 24 hour protectant, % control of fungal infection vs untreated plants
[15] = 100 ppm spray, 24 hour protectant, wheat, control of fungal infection vs untreated plants
[16] = 100 ppm spray, 24 hour protectant, wheat
[17] = wheat plants sprayed at 100 ppm, inoculated after 24 hours, control of fungal infection vs untreated plants
[18] = wheat plants sprayed at 100 ppm, inoculated after 24 hours

Row | Structure (SMILES) | melting point | inhibition at 25 ppm [4] | pest or weed control at 100 ppm [5] | inhibition at 25 ppm ([6]; 25 ppm in growth medium) | inhibition at 25 ppm ([7]; 25 ppm in growth medium) | inhibition at 25 ppm [9] | inhibition at 25 ppm [10] | inhibition at 25 ppm [11] | pest or weed control at 100 ppm [2, 16] | pest or weed control at 100 ppm [3, 16] | pest or weed control at 100 ppm [8, 15] | pest or weed control at 100 ppm [1, 17] | pest or weed control at 100 ppm [2, 18] | pest or weed control at 100 ppm [3, 18] | inhibition at 25 ppm ([6]; 25 ppm in the growth medium) | inhibition at 25 ppm ([7]; 25 ppm in the growth medium) | pest or weed control at 100 ppm [8, 17] | also measured
1 | COc1ccnc(C(=O)Nc2ccc(Nc3cccc(C(F)(F)F)c3)cc2)c1O [Compound 410] | 204 to 205 °C | < 80% | < 25% | < 80% | < 80% | < 80% | < 80% | < 80% |  |  |  |  |  |  |  |  |  | pest or weed control at 100 ppm [1, 12]: 25 to 74%; pest or weed control at 100 ppm [2, 13]: < 25%; pest or weed control at 100 ppm [3, 13]: < 25%; pest or weed control at 100 ppm [8, 12]: < 25%
2 | COc1ccnc(C(=O)N[C@H]2COC(=O)[C@H](Cc3ccccc3)[C@@H](OC(=O)C(C)C)[C@H](C)OC2=O)c1OC(=O)C1CCC1 [Compound 604] | 176 to 177 °C | < 80% | < 25% | < 80% | < 80% | < 80% | < 80% | < 80% |  |  |  |  |  |  |  |  |  | LEPTNO in vivo 1 Day Protectant [1, 14]: + +; PUCCRT in vivo 1 Day Protectant [2, 13]: + +; SEPTTR in vivo 1 Day Protectant [3, 13]: + +; ERYSGT in vivo 1 Day Protectant [8, 14]: + +
3 | COc1ccnc(C(=O)N[C@H]2C(O)[C@@H]3CC[C@H]2[C@@H]2CCCC[C@@H]23)c1O (stereo partly drawn) [Compound 293] | 143 to 160 °C (dec.) | < 80% | < 25% | < 80% | < 80% | < 80% | < 80% | < 80% | < 25% | 25 to 74% | < 25% |  |  |  |  |  |  | pest or weed control at 100 ppm [1, 15]: 25 to 74%
4 | CC(C)C(=O)O[C@H]1[C@H](C)OC(=O)[C@@H](NC(=O)c2conc2O)COC(=O)[C@@H]1Cc1ccccc1 [Compound 561] | 115 to 117 °C | < 80% | < 25% |  |  | < 80% | < 80% | < 80% |  |  |  | < 25% | 25 to 74% | 25 to 74% | < 80% | < 80% | 25 to 74% | 
5 | COc1cccc(CNC(=O)c2cccnc2O)c1OC [Compound 516] | 193 to 194 °C | < 80% | < 25% |  |  | < 80% | < 80% | < 80% |  |  |  | < 25% | < 25% | < 25% | < 80% | < 80% | < 25% | 
6 | COc1ccnc(C(=O)NC2CC(C)(C)CC(C)(C(=O)c3ccccc3)C2)c1O (stereo not drawn) [Compound 260] | 147 to 149 °C | < 80% | < 25% | < 80% | > 80% | < 80% | < 80% | < 80% | < 25% | 25 to 74% | < 25% |  |  |  |  |  |  | pest or weed control at 100 ppm [1, 15]: 25 to 74%
7 | CC1(C)CC(NC(=O)c2nsnc2O)CC(C)(C)C1 [Compound 552] | 96 to 102 °C | > 80% | 25 to 74% |  |  | < 80% | > 80% | > 80% |  |  |  | < 25% | < 25% | < 25% | > 80% | > 80% | 25 to 74% | 
8 | CCCC(=O)Oc1c(OC)ccnc1C(=O)N[C@H]1COC(=O)[C@H](Cc2ccccc2)[C@@H](OC(=O)C(C)C)[C@H](C)OC1=O [Compound 599] | 162 to 163 °C | < 80% | < 25% | > 80% | > 80% | < 80% | < 80% | < 80% |  |  |  |  |  |  |  |  |  | LEPTNO in vivo 1 Day Protectant [1, 14]: + +; PUCCRT in vivo 1 Day Protectant [2, 13]: + +; SEPTTR in vivo 1 Day Protectant [3, 13]: + +; pest or weed control at 100 ppm [8, 14]: < 25%
9 | Cc1nc(O)c(C(=O)NC2CC(C)(C)CC(C)(C)C2)cc1Cl [Compound 530] | 329 to 331 °C | < 80% | < 25% |  |  | < 80% | < 80% | < 80% |  |  |  | 25 to 74% | 25 to 74% | 25 to 74% | < 80% | < 80% | < 25% | 
10 | Cc1ccnc(C(=O)Nc2ccc(Oc3cccc(C(F)(F)F)c3)cc2)c1O [Compound 238] | 105 to 107 °C | < 80% | < 25% | < 80% | < 80% | < 80% | < 80% | < 80% | < 25% | < 25% | < 25% |  |  |  |  |  |  | pest or weed control at 100 ppm [1, 15]: 25 to 74%
11 | COc1ccnc(C(=O)N[C@H]2CC[C@H](Oc3ccc(C(F)(F)F)cc3)CC2)c1O [Compound 270] | 168 to 172 °C (dec.) | > 80% | 25 to 74% | > 80% | > 80% | > 80% | > 80% | < 80% | 25 to 74% | 25 to 74% | 25 to 74% |  |  |  |  |  |  | LEPTNO in vivo 1 Day Protectant [1, 15]: + +
12 | CC(C)C(=O)OC1CCC(NC(=O)c2ncccc2O)CC1 (stereo not drawn) [Compound 210] | 139 to 142 °C | < 80% | < 25% | < 80% | < 80% | < 80% | < 80% | < 80% | < 25% | 25 to 74% | < 25% |  |  |  |  |  |  | pest or weed control at 100 ppm [1, 15]: < 25%
13 | O=C(Nc1ccc(Oc2cccc(C(F)(F)F)c2)cc1)c1nccnc1O [Compound 535] | 239 to 243 °C (dec.) | > 80% | < 25% |  |  | < 80% | < 80% | < 80% |  |  |  | 25 to 74% | 25 to 74% | 25 to 74% | < 80% | < 80% | < 25% | 
14 | C=C1COC(=O)[C@@H](NC(=O)c2nccc(OC)c2OC(C)=O)COC(=O)C1 [Compound 595] | 163 to 164 °C | < 80% | < 25% |  |  | < 80% | < 80% | < 80% |  |  |  | 25 to 74% | < 25% | < 25% | < 80% | < 80% | < 25% | 
